In publication PMC6251858 (Acta Pharmaceutica Sinica. B, 2018):

How the values were obtained:
Assay type in all cases: cell-based
Coxsackie virus B3 = test: in vitro inhibition of Coxsackie virus B3 replication; conditions: for SI against Coxsackie virus B3 replication: selectivity index, preliminary in vitro assay
[1] = tested on: influenza virus A/Hanfang/359/95 (H3N2); test: in vitro antiviral assay against influenza virus A/Hanfang/359/95; conditions: selectivity index, preliminary in vitro assay
[2] = tested on: herpes simplex virus 1 (HSV-1); test: in vitro antiviral assay against herpes simplex virus 1

SMILES	IC50 (Coxsackie virus B3; Enterovirus B, B3, read-out: IC50 against Coxsackie virus B3 replication) [nM]	SI against Coxsackie virus B3 replication (Coxsackie virus B3)	SI against influenza virus A/Hanfang/359/95 (H3N2) [1]	IC50 ([2]; Human alphaherpesvirus 1, read-out: IC50 against herpes simplex virus 1 (HSV-1)) [nM]	SI against herpes simplex virus 1 (HSV-1) ([2]; selectivity index, preliminary in vitro assay)
Cc1cc(CCCOc2c(C)cc(-c3noc(C(F)(F)F)n3)cc2C)on1 [Pleconaril]	410	243.9	–	–	–
NC(=O)c1ncn([C@@H]2O[C@H](CO)[C@@H](O)[C@H]2O)n1 [RBV]	–	9.0	1200	–	–
Nc1nc2c(ncn2COCCO)c(=O)[nH]1 [acyclovir]	–	–	–	710	140.9
